# Data: ChEMBL document CHEMBL3714738, “Novel indole, indazole and benzimidazole arylamides as p2x3 and/or p2x2/3 antagonists” (2012)
# Assays:
# P2X purinoceptor 3 = target: T1, P2X purinoceptor 3 (Rattus norvegicus, UniProt P49654); assay: Antagonist activity against rat P2X3 receptor expressed in CHOK1 cells assessed as inhibition of alpha,beta-meATP-induced calcium response incubated for 20 mins by Fluo-3AM dye based FLIPR assay; assay type: functional, cell-based, CHO-K1
# T1 sequence (P49654 whole entry): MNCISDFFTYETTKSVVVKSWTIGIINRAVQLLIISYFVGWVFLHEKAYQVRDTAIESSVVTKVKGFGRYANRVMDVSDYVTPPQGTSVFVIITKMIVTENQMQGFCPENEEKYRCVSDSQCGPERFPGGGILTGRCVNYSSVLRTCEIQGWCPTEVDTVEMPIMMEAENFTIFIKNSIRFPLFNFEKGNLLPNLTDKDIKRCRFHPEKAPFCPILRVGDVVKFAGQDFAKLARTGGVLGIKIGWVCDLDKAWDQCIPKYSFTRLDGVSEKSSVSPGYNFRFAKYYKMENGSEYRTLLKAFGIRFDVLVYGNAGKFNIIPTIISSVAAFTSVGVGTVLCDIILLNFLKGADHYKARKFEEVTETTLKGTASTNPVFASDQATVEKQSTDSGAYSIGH
# [1] = target: T2, P2X2/P2X3 heterotrimeric receptor (Homo sapiens, UniProt P56373+Q9UBL9); assay: Antagonist activity against human P2X2/3 receptor expressed in CHOK1 cells assessed as inhibition of alpha,beta-meATP-induced calcium response incubated for 20 mins by Fluo-3AM dye based FLIPR assay; assay type: functional, cell-based, CHO-K1
# T2 sequence (Q9UBL9 whole entry): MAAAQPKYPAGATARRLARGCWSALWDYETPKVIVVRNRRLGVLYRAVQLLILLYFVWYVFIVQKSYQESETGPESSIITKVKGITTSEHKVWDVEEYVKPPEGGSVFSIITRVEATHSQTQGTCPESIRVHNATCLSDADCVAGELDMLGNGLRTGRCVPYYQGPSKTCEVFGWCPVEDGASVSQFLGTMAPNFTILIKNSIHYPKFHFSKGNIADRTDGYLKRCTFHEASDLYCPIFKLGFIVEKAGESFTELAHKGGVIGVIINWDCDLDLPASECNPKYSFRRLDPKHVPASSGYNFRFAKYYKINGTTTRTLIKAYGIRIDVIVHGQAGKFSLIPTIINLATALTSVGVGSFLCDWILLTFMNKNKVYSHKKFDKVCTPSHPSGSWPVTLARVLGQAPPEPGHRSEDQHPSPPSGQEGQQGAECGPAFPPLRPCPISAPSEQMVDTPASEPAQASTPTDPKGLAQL
# T2 sequence (P56373 whole entry): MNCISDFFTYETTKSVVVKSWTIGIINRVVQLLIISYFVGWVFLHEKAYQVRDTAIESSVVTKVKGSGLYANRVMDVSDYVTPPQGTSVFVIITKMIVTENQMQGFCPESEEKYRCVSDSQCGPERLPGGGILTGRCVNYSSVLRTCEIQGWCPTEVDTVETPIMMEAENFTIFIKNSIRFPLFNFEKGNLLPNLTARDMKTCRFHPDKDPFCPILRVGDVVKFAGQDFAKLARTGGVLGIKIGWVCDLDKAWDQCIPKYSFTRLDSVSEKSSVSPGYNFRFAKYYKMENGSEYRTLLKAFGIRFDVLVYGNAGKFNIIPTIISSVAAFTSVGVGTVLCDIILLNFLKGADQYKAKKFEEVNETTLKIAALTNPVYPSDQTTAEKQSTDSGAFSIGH
Ki (P2X purinoceptor 3) [nM],Ki [1] [nM],Structure (SMILES)
102,2880,Cc1ccc(-c2cc(C(=O)N[C@@H](C)CO)cc3c2ccn3-c2ccccc2)nc1
288,7240,Cc1ccc(-c2cc(C(=O)N[C@@H](C)CO)cc3c2cnn3CC(C)C)nc1
18.6,457,Cc1ccc(-c2cc(C(=O)NCc3cnc(C)cn3)cc3c2ccn3-c2ccccc2)nc1
